Like-named read-outs stand apart in the source and are kept apart here.
Legend:
[1] = biological target: T1, Bad-GFP with Bcl-2 or Bcl-xL in BSC-1 cells (Homo sapiens, UniProt Q07817); experiment: Bad-GFP localization in intact cells; format: cell-based; details: for mitochondrial targeting and heterodimerization of Bad-GFP: BH3I-1 100 μM, BH3I-2 50 μM, 6 hr, 100 μM zVAD; for order of activities, Bad-GFP localization: rank order
T1 construct: expressed in transfected cells; host or cells: BSC-1 cells
T1 sequence (Q07817 whole entry): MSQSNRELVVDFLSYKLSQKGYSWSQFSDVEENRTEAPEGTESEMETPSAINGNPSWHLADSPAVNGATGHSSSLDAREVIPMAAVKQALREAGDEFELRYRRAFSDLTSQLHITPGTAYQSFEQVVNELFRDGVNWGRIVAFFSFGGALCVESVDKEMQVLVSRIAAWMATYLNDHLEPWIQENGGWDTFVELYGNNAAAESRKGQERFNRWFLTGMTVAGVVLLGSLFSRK
Procedure: Bad is a pro-apoptotic member of the Bcl-2 family, whose apoptosis-promoting activity and mitochondrial targeting depends on heterodimerization with anti-apoptotic Bcl-2 family members (Zha et al., Cell 87, 619-28, 1996). To examine the effects of BH3Is on Bad localization, BSC-1 cells were transfected with 5 μg of Bad-GFP expression vector alone (FIG. 8D, panels 1 […]) or were co-transfected with 5 μg of Bad-GFP and 5 μg of Bcl-xL-T7 (FIG. 8D, panels 2-5). Twenty four hours after transfection, cells were treated with BH3I-1 (100 μM; FIG. 8D, panel 4) or BH3I-2 (50 μM; FIG. 8D, panel 5) for 6 hr. In order to determine mitochondrial localization, cells were pre-stained with MitoTracker Red CMXRos for 30 min prior to fixation (FIG. 8D, panel 2). All cells in this study were pretreated with 100 μM zVAD to decrease the detrimental effects of overexpression of proapoptotic Bcl-2 proteins on cell viability.
(§1) BH3Is disrupted the mitochondrial association of Bad, but not Bcl-xL, after in vitro treatment of the mitochondria isolated from 293 cells co-transfected with Bad and Bcl-xL (FIG. 8C). The relative activities of the BH3Is in this assay (BH3I-2>BH3I-1>BH3I-1″) were consistent with the previous results. […] Again, the order of the activities in these assays was BH3I-2>BH3I-1>BH3I-1″.

Jurkat cells = experiment: Cytotoxicity by MTS assay and propidium iodide uptake; format: cell-based
Procedure: Since BH3Is induce apoptosis, their mode of action, for example, through disruption of BH3 domain interactions, was investigated next. If apoptosis induced by a BH3I is BH3-dependent, then cytotoxicity should correlate with the compound's ability to disrupt BH3 domain interactions in vitro. To examine this possibility, Jurkat cells were treated with the BH3 Is and the occurrence of cell death was assayed by the MTS assay and propidium iodide (PI) uptake (FIG. 7A). The cytotoxicity of BH3-Is followed the order of BH3I-2′>BH3I-2>BH3I-2″>BH3I-1>BH3I-1′>BH3I-1″>BH3I-1′″ which paralleled the order of their Ki values determined using in vitro Bcl-xL binding assays (FIGS. 7B and 7C). Similar data were obtained using a trypan blue exclusion assay.

[2] = biological target: T2, Bad / Bcl-xL on mitochondria isolated from 293 cells (Homo sapiens, UniProt Q07817); experiment: Mitochondrial association of Bad in isolated mitochondria; details: rank order
T2 construct: expressed in transfected cells; host or cells: 293 cells (isolated mitochondria)
T2 sequence (Q07817 whole entry): as above
Procedure: FIG. 8C is an images of a the expression of Bad and Bcl-xL in 293 cells co-transfected with HA-Bad and Bcl-xL-T7. After 48 hr, cells were harvested and isolated mitochondria were treated with BH3Is for 2 hrs. Following treatment, mitochondria were pelleted by centrifugation and subjected to Western blot analysis using anti-HA and anti-T 7 antibodies.
as §1

[3] = MTS assay and PI uptake, rank order

Row | SMILES | mitochondrial targeting and heterodimerization of Bad-GFP [1] | order of activities, Bad-GFP localization [1] | order of cytotoxicity (Jurkat cells; [3]) | relative activities, mitochondrial association of Bad [2] | order of cytotoxicity (Jurkat cells)
1 | CC(C)C(C(=O)O)N1C(=O)C(=Cc2ccc(Br)cc2)SC1=S (stereo in doubt) [BH3I-1] | efficiently disrupted mitochondrial targeting and heterodimerization of Bad-GFP | BH3I-2>BH3I-1>BH3I-1″ | BH3I-2′>BH3I-2>BH3I-2″>BH3I-1>BH3I-1′>BH3I-1″>BH3I-1′″ | BH3I-2>BH3I-1>BH3I-1″ | –
2 | CC(C)C(C(=O)O)N1C(=O)/C(=C/c2ccccc2)SC1=S (centres unmarked) [BH3I-1″] | – | BH3I-2>BH3I-1>BH3I-1″ | – | BH3I-2>BH3I-1>BH3I-1″ | BH3I-2′>BH3I-2>BH3I-2″>BH3I-1>BH3I-1′>BH3I-1″>BH3I-1′″
3 | O=C(Nc1cc(S(=O)(=O)c2ccc(Cl)cc2)ccc1Cl)c1cc(Cl)cc(Br)c1O [BH3I-2] | efficiently disrupted mitochondrial targeting and heterodimerization of Bad-GFP | BH3I-2>BH3I-1>BH3I-1″ | BH3I-2′>BH3I-2>BH3I-2″>BH3I-1>BH3I-1′>BH3I-1″>BH3I-1′″ | BH3I-2>BH3I-1>BH3I-1″ | –

— patent US7390836B2, “Small molecules used to increase cell death” (priority 1999, dated 2008)
